According to article PMC7423715 (International journal of pharmaceutics, 2020):
Counter-ions that a name gives are not always drawn. Bridge positions count the residues as written; N and C are the ends. Square brackets hold non-standard residues; d marks the D form. Peptide text beside a SMILES is read from it. * marks the point of attachment. X1 = CC[C@H](C)CCCCC(=O)*; Dab = NCC[C@H](N)C(=O)O

Test system: Calu-3 cell monolayer
Experiment: Transepithelial transport across the Calu-3 cell monolayer
Details: colistin transport, Calu-3 monolayer, HBSS, 4 hours, LC-MS/MS, n = 4, Fig. 6C

CC[C@H](C)CCCCC(=O)N[C@@H](CCN)C(=O)N[C@H](C(=O)N[C@@H](CCN)C(=O)N[C@H]1CCNC(=O)[C@H]([C@@H](C)O)NC(=O)[C@H](CCN)NC(=O)[C@H](CCN)NC(=O)[C@H](CC(C)C)NC(=O)[C@@H](CC(C)C)NC(=O)[C@H](CCN)NC1=O)[C@@H](C)O [colistin, colistin sulfate] (X1-[Dab]T[Dab][Dab][Dab][dL]L[Dab][Dab]T; lactam 4-C)
drug retained in the donor compartment: more than 90%
